Data taken from US20160115225A1, “Methods of Reducing Methylglyoxal (MGO) Modification of Recombinant Proteins in Cell Culture” (AbbVie Inc., priority 2014, published 2016).

Columns and labels:
[1] = system: adalimumab producing cell line 2; test: Lys-C peptide mapping for MGO modification of adalimumab, shake flask culture, cell line 2; assay type: cell-based; settings: Example 5; day 11 harvest; control 1.93%
Procedure: For shake flask experiments (Example 4), duplicate 500 mL Corning vented non-baffled shake flasks (200 mL working volume) were used for each condition. Similar to the seed train stage, the production stage shake flasks were kept in incubators maintained at 36° C. and 5% CO2 on shaker platforms that were set at 140 rpm.
Typical trypsin digestion for peptide mapping cleaves a denatured, reduced and alkylated protein at the carboxyl side of the two basic amino acids, lysine and arginine. Methylglyoxal (MGO) is a small molecule metabolite derived as a glycolysis byproduct which can modify arginine residues. […] The challenge of quantifying the amount of MGO modified peptide is that, it is not compared to an equivalent non-modified peptide but rather to two parental cleaved peptides. […] In order to determine a truly accurate direct measurement of an MGO-modified peptide, it is compared to its non-modified counterpart and expressed as a percentage. […] The result is a direct comparison of the same peptide with and without an MGO modification, which provides a high degree of accuracy in quantifying even trace levels of the modified species.
Procedure: Samples were dilated to a nominal concentration of 4 mg/mL. […] Samples were analyzed by LC/MS peptide mapping. […] Eluting peaks were monitored using a Thermo Scientific LTQ-Orbitrap Mass Spectrometer. […]

[2] = system: adalimumab producing cell line 1; test: Glucose consumption of the culture, cell line 1; assay type: cell-based; settings: Example 3; arginine supplementation 4 g/l
Procedure: For the bioreactor (3 L Applikon) experiments (Examples 1, 2 and 3), 3 L, bioreactors (1.5 L working volume) were initiated at 35° C. (cell line 1) and 36° C. (cell line 2), 30% DO, 200 rpm, pH of 7.1. In some of the conditions, pH was ramped down to 6.8 in three days and kept at pH 6.8 thereafter. The inclusion of pH ramp for a particular condition is indicated by the final pH in the experimental design. If the final pH is 7.1, then it indicates no pH ramp was performed, whereas if the final pH is 6.8, a pH ramp was performed on day 3 from pH 7.1 to pH 6.8. In some of the conditions, a temperature shift was performed. When temperature shift was performed, the temperature was lowered to 33° C. Again, the conditions where such a temperature shift was performed can be identified from the final temperature in the experimental design. Cultures were run in extended batch mode with the addition of a desired amount of 40% glucose stock solution was fed based on glucose measurements.
To assess if this reduction in MGO modification in the test conditions also corresponded to lower glucose consumption, the specific glucose consumption rate was calculated across the two phases of culture: average over day 0-day 5 and average over day 5-10 (period post temperature shift) (FIG. 4b). The specific glucose consumption rate in the conditions with 2DDG supplementation was lower in both phases. […] In the period post the temperature shift, up to 50% reduction in specific glucose consumption rate relative to that in the control was observed. Thus, a clear correlation has been observed between reduced glucose consumption and the extent of MGO modification of the peptides.
To further assess the applicability of this strategy, the cumulative glucose consumption levels were also evaluated for these conditions in this study (FIG. 6b). This was calculated by using daily glucose concentration measurements via the offline analyzer and by accounting for glucose feeds when added. […]

SMILES	MGO modification (total) [1] [%]	glucose consumption [2]
N[C@@H](CO)C(=O)O [Test 1, Serine]	0.68	
N=C(N)NCCC[C@H](N)C(=O)O [arginine, Arginine]		no additional reduction
